From article PMC11178908, “Diabetes drugs activate neuroprotective pathways in models of neonatal hypoxic-ischemic encephalopathy” (EMBO Molecular Medicine, 2024)
Several values for one entry are separate records, joined by “and”; a condition that tells them apart may be missing. Equal entries are not always repeated. Entries after “also recorded” stand apart in the source; their conditions may differ.

Key:
[1] = test system: GLP1-R; test: cAMP content in the brain of naïve P10 mice (blood-brain barrier crossing); format: in vivo
Description: Brains of P10 naive mice or treated at the different time points were collected (n = 4 per group). All samples were processed using AMP direct immunoassay kit as per manufacturer’s instructions (Abcam).

[2] = Blood glucose / hypoglycaemia; format: in vivo, P10 CD1 mice; settings: for blood glucose: HI P10 mice
Protocol: (§1) Thereafter, a dosing experiment was conducted to evaluate the optimal dose for semaglutide in the same neonatal HIE model (Fig. EV2F) and brain protection was measured using a macroscopic scoring system to assess the size of the infarct.
Blood glucose levels (mmol/l) were measured using a blood glucose monitor (CodeFree, SD Biosensor) in naive controls and mice following one semaglutide dose administration (0.25 µg/g) with or without glucose supplementation, intraperitoneally or subcutaneously to determine the best route of administration. Blood samples were collected via cardiac puncture at 0.5 h, 2 h, 24 h, 7 days, and 14 days for glucose test. Brains of P10 naive mice or treated at the different time points were collected (n = 4 per group). All samples were processed using […] as per manufacturer’s instructions (Abcam).

[3] = test system: P10 CD1 mice with surgically induced HI; test: Mortality after semaglutide in neonatal mice with HI; format: in vivo; settings: semaglutide 0.5 µg/g (500 µg/kg), no glucose
Protocol: as §1
The body temperature was maintained using a heating mat. […] The pups were then immediately returned to the dam. […] 1% mortality was observed following this procedure. […] The study design is illustrated in Fig. EV1.

[4] = test system: pGSK3β-S9; test: pGSK3β-S9 protein level in brain (western blot) after HI
Protocol: Tissues were homogenized (Ultra-Turrax TP, IKA Labortechnik, Wasserburg, Germany) on ice in 300 ml of RIPA lysis buffer (Thermo) per 100 mg of tissue with 1X protease inhibitor cocktail (Thermo) and incubated for 30 min. Lysates were centrifuged at 14,000 × g, 4 °C for 20 min and overall protein concentrations of the supernatant were determined by Pierce BCA Protein Assay (Life Technologies). […] Proteins were transferred to PDVF membrane at 400 mA for 1 h and membrane was blocked for 1 h at 4 °C with 5% BSA in TBS with 3% Tween-20. Membranes were subsequently incubated overnight at 4 °C with primary antibodies (Appendix Table S2) with 3% BSA in TBS with 3% Tween-20. […] Blots were developed with the ECL system (SuperSignal West Pico, Life Technologies) and imaged using a Genegnome imager (Syngene, Cambridge, UK).
All experiments involved litters of postnatal day 10 CD1 mice (P10) bred in-house. […] This was achieved using heating mats, heated incubators and prompt returning of pups to the dam. […] The left common carotid artery was permanently occluded with 8/0 polypropylene suture and the wound closed with tissue glue. The body temperature was maintained using a heating mat. The mice recovered in an incubator at 37 °C and were returned to the dam for 1 h. […] The pups were then immediately returned to the dam. […] All treatments were administered immediately after HI via intraperitoneal administration. […] Treated animal were culled at either 48 h post HI for ST studies or 60 days post HI for LT studies.

[5] = test system: human GLP1-R; test: GLP1-R activation, luciferase reporter in GLP1-R/pCRE-luciferase/CHO-K1 cells; format: cell-based; settings: exendin-9 (500 nM) with 1 μM semaglutide or exendin-4
Protocol: For biological evaluation of GLP-1/Fc for human GLP1-R activation, GLP1-R/pCRE-Luciferase-co-expressed CHO cell lines were established using the lipofectamine method. […] Using a luciferase assay system (Promega – E1500), activity of the GLP1 receptor can be assessed following treatment with GLP1-R agonists for 24 h in 96-well plates.

[6] = test system: HIF-1-α; test: HIF-1-α expression (qPCR) in primary neurons exposed to OGD; format: cell-based, CD1 mice; settings: p < 0.0001 exendin-4, p < 0.0001 semaglutide
Protocol: (§2) Cells were plated at a density of 2 × 10^6 cells/6 cm plate and propagated. At DIV 10–12, neurons were subjected to oxygen–glucose deprivation (OGD) in neurobasal-A medium lacking glucose and incubated in a hypoxia chamber (Billups-Rothenburg Inc., Del Mar, CA, USA) filled with an anoxic atmosphere of 5% CO2 balanced in nitrogen at 37 °C for 2 h. […] Culture medium was assayed after 24 h.
(§3) RNA from neuron cultures or brains was extracted and isolated using RNeasy Mini kit (Qiagen) and first-strand cDNA was generated using High-Capacity cDNA Reverse Transcription kit (Applied Biosystems). Quantitative RT-PCR was carried out using a StepOnePlus (Applied Biosystems) with the SsoAdvanced™ Universal SYBR Green PCR Core Reagents Supermix (Bio-Rad). Primers sequences were designed to detect GLP1-R, CREB, GSK3β, il-10, IL-4, IL-1β, ATF-3, Bcl-2, Bcl-xL (Appendix Table S1). Data from StepOne™ software v2.3 were calibrated to Gapdh, and the relative quantitation of gene expression was performed using the comparative CT method.

[7] = test system: ATF-3; test: ATF-3 expression (qPCR, immunofluorescence) in primary neurons exposed to OGD; format: cell-based, CD1 mice
Protocol: as §2, §3
Neuronal cultures (n = 6 per group) were stained by simultaneous overnight incubation with ATF-3 and anti-NeuN antibodies (Appendix Table S2). Representative images were captured using a Zeiss LSM710 confocal microscope and Zen software (Carl Zeiss AG). […] All images were processed using Imaris v.9.1 (Bitplane AG).

[8] = test system: CREB; test: CREB expression (qPCR) in primary neurons exposed to OGD; format: cell-based, CD1 mice; settings: p = 0.0016 exendin-4, p = 0.0002 semaglutide
Protocol: as §2, §3

[9] = test system: caspase 3; test: Caspase 3 activity in primary neurons exposed to OGD; format: cell-based, CD1 mice
Protocol: as §2
Culture medium was assayed after treatment at 24 h post-OGD. All samples were processed using Multiplex caspases 3, 8 and 9 activity assay kit as per manufacturer’s instructions (Abcam – Ab219915).

Row | Compound | blood-brain barrier crossing ([1]; IP, naïve neonatal mice) | entry into the brain and GLP1-R activation, IP vs SC ([1]; p < 0.0001 at 30 mins, p = 0.0024 at 2 h) | blood glucose ([2]; 0.5 µg/g IP, 30 min, p = 0.0002) | blood glucose ([2]; 0.5 µg/g IP, 2 h, p = 0.0003) | blood glucose ([2]; 0.5 µg/g IP, 24 h, p = 0.0003) | blood glucose ([2]; 0.5 µg/g SC, 2 h, p = 0.0180) | blood glucose ([2]; 0.5 µg/g SC, 24 h, p = 0.0289) | hypoglycaemia with oral glucose supplementation ([2]; 2 mg/g oral glucose, semaglutide 0.5 µg/g) | fall in blood glucose ([2]; intraperitoneal, high dose in HI neonatal mice) | mortality / recovery after HI surgery [3] | pGSK3β-S9 protein level ([4]; after HI, western blot, relative to β-actin, single animals, n = 4) | pGSK3β-S9 protein level vs HI saline ([4]; p = 0.0001 both) | effect of antagonist on agonist-induced luciferase expression [5] | HIF-1-α expression vs OGD [6] | ATF-3 average expression/GAPDH ([7]; OGD neurons, treatment 2 h after OGD, qPCR, single samples, n = 3, listed as Ex-9) | ATF-3 expression vs OGD ([7]; qPCR and immunofluorescence, p = 0.0378 exendin-4, p = 0.0226 semaglutide) | CREB expression vs OGD [8] | Caspase 3 activity ([9]; 24 h post-OGD, single replicates, n = 5, listed as Ex-9) | effect of antagonist on anti-apoptotic effects of exendin-4 and semaglutide ([9]; Bcl-xL, Bcl-2, caspases 3, 8, 9)
1 | CC[C@H](C)[C@H](NC(=O)[C@H](Cc1ccccc1)NC(=O)[C@H](CCC(=O)O)NC(=O)[C@H](CCCCNC(=O)COCCOCCNC(=O)COCCOCCNC(=O)CC[C@H](NC(=O)CCCCCCCCCCCCCCCCC(=O)O)C(=O)O)NC(=O)[C@H](C)NC(=O)[C@H](C)NC(=O)[C@H](CCC(N)=O)NC(=O)CNC(=O)[C@H](CCC(=O)O)NC(=O)[C@H](CC(C)C)NC(=O)[C@H](Cc1ccc(O)cc1)NC(=O)[C@H](CO)NC(=O)[C@H](CO)NC(=O)[C@@H](NC(=O)[C@H](CC(=O)O)NC(=O)[C@H](CO)NC(=O)[C@@H](NC(=O)[C@H](Cc1ccccc1)NC(=O)[C@@H](NC(=O)CNC(=O)[C@H](CCC(=O)O)NC(=O)C(C)(C)NC(=O)[C@@H](N)Cc1cnc[nH]1)[C@@H](C)O)[C@@H](C)O)C(C)C)C(=O)N[C@@H](C)C(=O)N[C@@H](Cc1c[nH]c2ccccc12)C(=O)N[C@@H](CC(C)C)C(=O)N[C@H](C(=O)N[C@@H](CCCNC(=N)N)C(=O)NCC(=O)N[C@@H](CCCNC(=N)N)C(=O)NCC(=O)O)C(C)C [semaglutide] | cross the blood-brain barrier | more rapid when the agonist was given IP compared with subcutaneously | Statistically significant hypoglycaemia | Statistically significant hypoglycaemia | Statistically significant hypoglycaemia | Statistically significant hypoglycaemia | Statistically significant hypoglycaemia | completely compensated for by oral supplementation with 2 mg/g glucose | drop significantly within 30 min | increased mortality; also recorded: some mice did not recover from HI surgery | 0.3664 and 0.5017 and 0.5395 and 0.3157 | modulated | – | – | – | – | – | – | –
2 | exendin 9-39 [exendin-9] | – | – | – | – | – | – | – | – | – | – | – | – | inhibited | inhibited this improvement | 21.697 and 22.687 and 26.651 | inhibited this effect | blocked this effect | 1.4812 and 1.737 and 1.2406 and 1.699 and 1.511 | inhibited the anti-apoptotic effects
